Test results as given in patent US6706740B2, “Fungicidal heterocyclic aromatic amides and their compositions, methods of use and preparation” (Dow AgroSciences LLC, priority 1999, dated 2004).
Read-outs that look alike come from different tables or passages of the source.

Assays:
[1] = tested on: Phytophthora infestans—PHYTIN; experiment: whole plant or invertebrate; type: in vivo; conditions: Phytophthora, in Solanum lycopersicum, 24 h, read-out: PHYTIN in vivo 1 Day Protectant
[2] = tested on: Mycosphaerella graminicola (Septoria tritici—SEPTTR); experiment: In vitro fungal growth inhibition, Mycosphaerella graminicola (SEPTTR); type: cell-based; conditions: Zymoseptoria tritici, read-out: SEPTTR in vitro Growth Inhibition
[3] = tested on: Phytophthora infestans (PHYTIN); experiment: microbe, parasite or virus in culture; type: cell-based; conditions: Phytophthora infestans, read-out: PHYTIN in vitro Growth Inhibition
[4] = tested on: Magnaporthe grisea (Pyricularia oryzae—PYRIOR); experiment: microbe, parasite or virus in culture; type: cell-based; conditions: Pyricularia oryzae, read-out: PYRIOR in vitro Growth Inhibition
[5] = tested on: Leptosphaeria nodorum—LEPTNO; experiment: Glume Blotch of Wheat, in vivo whole plant, 24 Hour Protectant; conditions: for pest or weed control at 100 ppm: Leptosphaeria, read-out: LEPTNO in vivo 1 Day Protectant
Septoria tritici—SEPTTR = experiment: Leaf Blotch of Wheat, in vivo whole plant, 24 Hour Protectant; conditions: for pest or weed control at 100 ppm: Zymoseptoria tritici, 24 h, control of fungal infection vs untreated plants, read-out: SEPTTR in vivo 1 Day Protectant; for SEPTTR in vivo 1 Day Protectant: % control of fungal infection vs untreated plants
Ustilago maydis (USTIMA) = experiment: microbe, parasite or virus in culture; type: cell-based; conditions: Mycosarcoma maydis, read-out: USTIMA in vitro Growth Inhibition
Erysiphe graminis—ERYSGT = experiment: Powdery Mildew of Wheat, in vivo whole plant, 24 Hour Protectant; conditions: for pest or weed control at 100 ppm: Erysiphe, read-out: ERYSGT in vivo 1 Day Protectant
[6] = tested on: Rhizoctonia solani (RHIZSO); experiment: microbe, parasite or virus in culture; type: cell-based; conditions: Rhizoctonia solani, read-out: RHIZSO in vitro Growth Inhibition
[7] = tested on: Stagonospora nodorum (Leptosphaeria nodorum—LEPTNO); experiment: In vitro fungal growth inhibition, Stagonospora nodorum (LEPTNO); type: cell-based; conditions: Leptosphaeria, read-out: LEPTNO in vitro Growth Inhibition
[8] = tested on: Puccinia recondita—PUCCRT; experiment: Brown Rust of Wheat, in vivo whole plant, 24 Hour Protectant; conditions: for pest or weed control at 100 ppm: Puccinia, read-out: PUCCRT in vivo 1 Day Protectant
[9] = wheat plants sprayed at 100 ppm, inoculated after 24 hours, control of fungal infection vs untreated plants
[10] = wheat plants sprayed at 100 ppm, inoculated after 24 hours
[11] = 100 ppm spray, wheat, 24 hour protectant, control of fungal infection vs untreated plants
[12] = 100 ppm spray, wheat, 24 hour protectant
[13] = 100 ppm spray, wheat, 24 hour protectant, % control of fungal infection vs untreated plants
[14] = 100 ppm spray, 24 hour protectant, wheat, control of fungal infection vs untreated plants
[15] = 100 ppm spray, 24 hour protectant, wheat

Compound	pest or weed control at 100 ppm [1] [%]	inhibition at 25 ppm [3] [%]	inhibition at 25 ppm [4] [%]	inhibition at 25 ppm (Ustilago maydis (USTIMA)) [%]	inhibition at 25 ppm [6] [%]	inhibition at 25 ppm ([2]; 25 ppm in growth medium) [%]	pest or weed control at 100 ppm [5, 11] [%]	pest or weed control at 100 ppm (Septoria tritici—SEPTTR; [12]) [%]	pest or weed control at 100 ppm (Erysiphe graminis—ERYSGT; [11]) [%]	inhibition at 25 ppm ([7]; 25 ppm in growth medium) [%]	pest or weed control at 100 ppm [8, 11] [%]	further results
O=C(Nc1ccccc1Oc1ccc(C(F)(F)F)cc1)c1nc(Br)ccc1O [Compound 493]	< 25	< 80	< 80	< 80	< 80	–	–	–	–	–	–	inhibition at 25 ppm ([2]; 25 ppm in the growth medium): < 80%; pest or weed control at 100 ppm [5, 9]: < 25%; pest or weed control at 100 ppm (Septoria tritici—SEPTTR; [10]): 25 to 74%; pest or weed control at 100 ppm (Erysiphe graminis—ERYSGT; [9]): < 25%; inhibition at 25 ppm ([7]; 25 ppm in the growth medium): < 80%; pest or weed control at 100 ppm [8, 9]: < 25%
COc1ccc(Oc2ccc(NC(=O)c3nccc(OC)c3O)cc2)cc1 [Compound 435]	< 25	< 80	< 80	< 80	< 80	> 80	25 to 74	< 25	< 25	< 80	< 25	–
COC(=O)C(Cc1ccc(OCc2ccccc2)cc1)NC(=O)c1nccc(OC)c1O (single isomer, unassigned) [Compound 338]	< 25	< 80	< 80	> 80	< 80	< 80	–	25 to 74	< 25	< 80	–	LEPTNO in vivo 1 Day Protectant [5, 11]: + +; PUCCRT in vivo 1 Day Protectant [8, 11]: + +
COc1ccccc1Oc1ccc(NC(=O)c2nccc(OC)c2O)cc1 [Compound 433]	< 25	< 80	< 80	< 80	< 80	> 80	< 25	< 25	< 25	< 80	< 25	–
COc1ccnc(C(=O)Nc2ccc(Oc3cc(Oc4ccccc4)ncn3)cc2)c1O [Compound 468]	< 25	< 80	< 80	< 80	< 80	–	–	–	–	–	–	inhibition at 25 ppm ([2]; 25 ppm in the growth medium): < 80%; pest or weed control at 100 ppm [5, 9]: < 25%; pest or weed control at 100 ppm (Septoria tritici—SEPTTR; [10]): 25 to 74%; pest or weed control at 100 ppm (Erysiphe graminis—ERYSGT; [9]): < 25%; inhibition at 25 ppm ([7]; 25 ppm in the growth medium): < 80%; pest or weed control at 100 ppm [8, 9]: < 25%
COCCC(=O)Oc1c(OC)ccnc1C(=O)Nc1ccc(Sc2cccc(C(F)(F)F)c2)cc1 [Compound 712]	< 25	< 80	> 80	< 80	< 80	> 80	–	–	–	> 80	–	pest or weed control at 100 ppm [5, 13]: 25 to 74%; SEPTTR in vivo 1 Day Protectant (Septoria tritici—SEPTTR; [12]): + +; ERYSGT in vivo 1 Day Protectant (Erysiphe graminis—ERYSGT; [13]): + +; PUCCRT in vivo 1 Day Protectant [8, 13]: + +
COc1ccnc(C(=O)NC2CC(=O)OCC(C)COC2=O)c1O (stereo not drawn) [Compound 378]	< 25	< 80	< 80	< 80	< 80	< 80	25 to 74	< 25	< 25	< 80	< 25	–
COc1ccnc(C(=O)Nc2cccc(Sc3ccc(C(F)(F)F)cc3)c2)c1OC(C)=O [Compound 710]	< 25	< 80	> 80	< 80	< 80	> 80	–	–	–	> 80	–	LEPTNO in vivo 1 Day Protectant [5, 13]: + +; SEPTTR in vivo 1 Day Protectant (Septoria tritici—SEPTTR; [12]): + +; pest or weed control at 100 ppm (Erysiphe graminis—ERYSGT; [13]): < 25%; PUCCRT in vivo 1 Day Protectant [8, 13]: + +
CC1(C)CC(NC(=O)c2nccc(Cl)c2O)CC(C)(C)C1 [Compound 480]	< 25	< 80	> 80	< 80	< 80	–	–	–	–	–	–	inhibition at 25 ppm ([2]; 25 ppm in the growth medium): < 80%; pest or weed control at 100 ppm [5, 9]: 25 to 74%; pest or weed control at 100 ppm (Septoria tritici—SEPTTR; [10]): < 25%; pest or weed control at 100 ppm (Erysiphe graminis—ERYSGT; [9]): < 25%; inhibition at 25 ppm ([7]; 25 ppm in the growth medium): < 80%; pest or weed control at 100 ppm [8, 9]: < 25%
COc1ccnc(C(=O)NC(COC(=O)CCc2ccccc2)C(=O)OC(C)COC(=O)C(C)C)c1OC(C)=O (stereo not drawn) [Compound 590]	< 25	< 80	< 80	< 80	< 80	–	–	–	–	–	–	inhibition at 25 ppm ([2]; 25 ppm in the growth medium): < 80%; pest or weed control at 100 ppm [5, 9]: 25 to 74%; pest or weed control at 100 ppm (Septoria tritici—SEPTTR; [10]): 25 to 74%; pest or weed control at 100 ppm (Erysiphe graminis—ERYSGT; [9]): < 25%; inhibition at 25 ppm ([7]; 25 ppm in the growth medium): < 80%; pest or weed control at 100 ppm [8, 9]: 25 to 74%
COc1ccnc(C(=O)Nc2cccc(Oc3ccc(C(F)(F)F)cc3)c2)c1O [Compound 423]	< 25	< 80	> 80	< 80	< 80	< 80	25 to 74	25 to 74	< 25	< 80	25 to 74	–
C[C@H](NC(=O)c1ncccc1O)c1cccc2ccccc12 [Compound 232]	< 25	< 80	> 80	< 80	< 80	> 80	–	–	–	< 80	–	pest or weed control at 100 ppm [5, 14]: < 25%; pest or weed control at 100 ppm (Septoria tritici—SEPTTR; [15]): < 25%; pest or weed control at 100 ppm (Erysiphe graminis—ERYSGT; [14]): 25 to 74%; pest or weed control at 100 ppm [8, 14]: < 25%
COc1ccnc(C(=O)N[C@@H](COCc2ccccc2)C(=O)O[C@@H](C)[C@H](OC(=O)C(C)C)[C@@H](Cc2ccccc2)C(=O)OCc2ccccc2)c1O [Compound 342]	< 25	< 80	< 80	> 80	< 80	< 80	25 to 74	25 to 74	25 to 74	< 80	–	PUCCRT in vivo 1 Day Protectant [8, 11]: + +
COc1ccnc(C(=O)Nc2cc(C)c(OC(=O)c3ccccc3)c(C)c2)c1O [Compound 456]	< 25	< 80	< 80	< 80	< 80	> 80	< 25	25 to 74	< 25	> 80	< 25	–
COc1ccnc(C(=O)NC2C[C@H](C)C[C@H](c3ccccn3)C2)c1O (stereo partly drawn) [Compound 259]	25 to 74	< 80	< 80	< 80	< 80	< 80	–	–	–	< 80	–	pest or weed control at 100 ppm [5, 14]: 25 to 74%; pest or weed control at 100 ppm (Septoria tritici—SEPTTR; [15]): 25 to 74%; pest or weed control at 100 ppm (Erysiphe graminis—ERYSGT; [14]): < 25%; pest or weed control at 100 ppm [8, 14]: 25 to 74%
